Data reported in patent publication US20240239792A1, “MODULATORS OF BCL-2 OR BCL-2/BCL-XL AND USES THEREOF” (APPICINE THERAPEUTICS (HK) LIMITED, priority 2021, published 2024).

Legend:
DOHH2 cells = experiment: CellTiter-Glo cell proliferation assay, DOHH2 cells; format: cell-based; details: Homo sapiens, DOHH-2, 72 hours
Description: The CellTiter-Glo® Luminescent Cell Viability Assay (Promega, G7573) was used to study the cellular potency of disclosed compounds herein. The cells were harvested during the logarithmic growth period and counted with hemocytometer. The DOHH2 cells were seeded at 1.6*10^4 in 90 ul DMEM medium supplemented with 10% fetal bovine serum (FBS) (as RS4;11 cells were seeded at 4000 in 90 ul RPMI-1640 medium with 10% FBS) per well in 96-well plates and treated with 10 ul of a serial dilution of compounds disclosed herein (maximum concentration and dilution ratio determined by the results of pre-experiment may vary) for 72 hours in a 5% CO2 incubator at 37° C. Cell viability was assessed according to the manufacturer's recommendations. After the plates return to the room temperature, 100 ul of CellTiter-Glo® reagent was added to 100 ul of cell culture. The mixture was agitated on an orbital shaker for 2 minutes or placed it at room temperature for 10 minutes to allow cell lysis and stabilization of luminescent signals. Luminescent signals were recorded using Envision 2104 instrument. And GI50 values were then calculated.

BCL-2 = target: T1, BCL-2 (Homo sapiens, UniProt P10415); experiment: HTRF BCL-2/BAK assay (Cisbio); format: binding; details: recombinant human Tag1-BCL-2 2 nM, Tag2-BAK 10 nM
T1 construct: purchased Cisbio 63ADK000CB01PEG
Description: Then the pre-mixed anti-Tag1-Eu^3+ and anti-tag2-XL665 were added to the plate and further incubated at room temperature for another 2 hours. The signals ([…]) were read on Envision 2104 instrument. The IC50 for each compound was derived from fitting the signal of 665/615 nM to the increasing compound concentration.
Using the above assays, the following compounds were tested.

T1 sequence (P10415 whole entry): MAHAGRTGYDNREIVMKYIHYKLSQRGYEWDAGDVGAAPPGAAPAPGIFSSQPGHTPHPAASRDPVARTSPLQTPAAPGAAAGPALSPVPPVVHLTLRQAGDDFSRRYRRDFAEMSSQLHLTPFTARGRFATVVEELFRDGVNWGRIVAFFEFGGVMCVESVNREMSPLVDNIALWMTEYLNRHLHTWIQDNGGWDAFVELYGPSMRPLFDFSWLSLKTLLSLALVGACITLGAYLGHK

| SMILES | IC50 (BCL-2) [nM] | GI50 (DOHH2 cells) [nM] |
| --- | --- | --- |
| Nc1cccc2c1CCCCC2N1CCN(c2ccc(C(=O)NS(=O)(=O)c3ccc(NCC4CCOCC4)c([N+](=O)[O-])c3)c(Oc3cnc4[nH]ccc4c3)c2)CC1 (centres unmarked) [Compound 58, 2-((1H-pyrrolo[2,3-b]pyridin-5-yl)oxy)-4-(4-(1-amino-6,7,8,9-tetrahydro-5H-benzo[7]annulen-5-yl)piperazin-1-yl)-N-((3-nitro-4-(((tetrahydro-2H-pyran-4-yl)methyl)amino)phenyl)sulfonyl)benzamide] | < 20 | 500 to 5000 |
| O=C(NS(=O)(=O)c1ccc(NCC2CC3(CCC4(CC3)OCCO4)C2)c([N+](=O)[O-])c1)c1ccc(N2CCN([C@@H]3CCCCc4c(Cl)cccc43)CC2)cc1Oc1cnc2[nH]ccc2c1 [Compound 133, (R)-2-((1H-pyrrolo[2,3-b]pyridin-5-yl)oxy)-N-((4-(((8,11-dioxadispiro[3.2.47.24]tridecan-2-yl)methyl)amino)-3-nitrophenyl)sulfony1)-4-(4-(1-chloro-6,7,8,9-tetrahydro-5H-benzo[7]annulen-5-yl)piperazin-1-yl)benzamide] | < 20 | < 50 |
| O=C(NS(=O)(=O)c1ccc(NCC2CC3CC2CN3)c([N+](=O)[O-])c1)c1ccc(N2CCN([C@@H]3CCCCc4c(Cl)cccc43)CC2)cc1Oc1cnc2[nH]ccc2c1 (stereo partly drawn) [Compound 105, 2-((1H-pyrrolo[2,3-b]pyridin-5-yl)oxy)-N-((4-(((2-azabicyclo[2.2.1]heptan-5-yl)methyl)amino)-3-nitrophenyl)sulfonyl)-4-(4-((R)-1-chloro-6,7,8,9-tetrahydro-5H-benzo[7]annulen-5-yl)piperazin-1-yl)benzamide] | < 20 | 50 to 500 |
| O=C(NS(=O)(=O)c1ccc(NCC2CC3(CCCCC3)C2)c([N+](=O)[O-])c1)c1ccc(N2CCN([C@@H]3CCCCc4c(Cl)cccc43)CC2)cc1Oc1cnc2[nH]ccc2c1 [Compound 132, (R)-2-((1H-pyrrolo[2,3-b]pyridin-5-yl)oxy)-4-(4-(1-chloro-6,7,8,9-tetrahydro-5H-benzo[7]annulen-5-yl)piperazin-1-yl)-N-((3-nitro-4-((spiro[3.5]nonan-2-ylmethyl)amino)phenyl)sulfonyl)benzamide] | < 20 | 50 to 500 |
| O=C(NS(=O)(=O)c1ccc(NCC2CCOCC2)c([N+](=O)[O-])c1)c1ccc(N2CC3(CCN(C4CCCc5ccccc54)C3)C2)cc1Oc1cnc2[nH]ccc2c1 (centres unmarked) [Compound 91, 2-((1H-pyrrolo[2,3-b]pyridin-5-yl)oxy)-N-((3-nitro-4-(((tetrahydro-2H-pyran-4-yl)methyl)amino)phenyl)sulfonyl)-4-(6-(1,2,3,4-tetrahydronaphthalen-1-yl)-2,6-diazaspiro[3.4]octan-2-yl)benzamide] | < 20 | 500 to 5000 |
| O=C(NS(=O)(=O)c1ccc(NCC2CCOCC2)c([N+](=O)[O-])c1)c1ccc(N2CC3(C2)CN(C2CCCc4ccccc42)C3)cc1Oc1cnc2[nH]ccc2c1 (centres unmarked) [Compound 96, 2-((1H-pyrrolo[2,3-b]pyridin-5-yl)oxy)-N-((3-nitro-4-(((tetrahydro-2H-pyran-4-yl)methyl)amino)phenyl)sulfonyl)-4-(6-(1,2,3,4-tetrahydronaphthalen-1-yl)-2,6-diazaspiro[3.3]heptan-2-yl)benzamide] | 20 to 200 | > 5000 |

Continued, in another order:

| IC50 (BCL-2) [nM] | SMILES | GI50 (DOHH2 cells) [nM] |
| --- | --- | --- |
| < 20 | CC(=O)Nc1cccc2c1CCCCC2N1CCN(c2ccc(C(=O)NS(=O)(=O)c3ccc(NCC4CCOCC4)c([N+](=O)[O-])c3)c(Oc3cnc4[nH]ccc4c3)c2)CC1 (centres unmarked) [Compound 59, 2-((1H-pyrrolo[2,3-b]pyridin-5-yl)oxy)-4-(4-(1-acetamido-6,7,8,9-tetrahydro-5H-benzo[7]annulen-5-yl)piperazin-1-yl)-N-((3-nitro-4-(((tetrahydro-2H-pyran-4-yl)methyl)amino)phenyl)sulfonyl)benzamide] | > 5000 |
| 20 to 200 | O=C(NS(=O)(=O)c1ccc(NCC2CCOCC2)c([N+](=O)[O-])c1)c1ccc(N2CC3(CCN(C4CCCCc5ccccc54)CC3)C2)cc1Oc1cnc2[nH]ccc2c1 (centres unmarked) [Compound 97, 2-((1H-pyrrolo[2,3-b]pyridin-5-yl)oxy)-N-((3-nitro-4-(((tetrahydro-2H-pyran-4-yl)methyl)amino)phenyl)sulfonyl)-4-(7-(6,7,8,9-tetrahydro-5H-benzo[7]annulen-5-yl)-2,7-diazaspiro[3.5]nonan-2-yl)benzamide] | 500 to 5000 |
| < 20 | O=C(NS(=O)(=O)c1ccc(NCC2CCOCC2)c([N+](=O)[O-])c1)c1ccc(N2CCN(C3CCCCc4c(Cl)cccc43)CC2)cc1Oc1cnc2[nH]ccc2c1 (centres unmarked) [Compound 27, 2-((1H-pyrrolo[2,3-b]pyridin-5-yl)oxy)-4-(4-(1-chloro-6,7,8,9-tetrahydro-5H-benzo[7]annulen-5-yl)piperazin-1-yl)-N-((3-nitro-4-(((tetrahydro-2H-pyran-4-yl)methyl)amino)phenyl)sulfonyl)benzamide] | < 50 |
| 20 to 200 | O=C(NS(=O)(=O)c1ccc(NCC2CCOCC2)c([N+](=O)[O-])c1)c1ccc(N2CCC3(CC2)CN(C2CCCCc4ccccc42)C3)cc1Oc1cnc2[nH]ccc2c1 (centres unmarked) [Compound 93, 2-((1H-pyrrolo[2,3-b]pyridin-5-yl)oxy)-N-((3-nitro-4-(((tetrahydro-2H-pyran-4-yl)methyl)amino)phenyl)sulfonyl)-4-(2-(6,7,8,9-tetrahydro-5H-benzo[7]annulen-5-yl)-2,7-diazaspiro[3.5]nonan-7-yl)benzamide] | 500 to 5000 |
| 20 to 200 | O=C(NS(=O)(=O)c1ccc(NCC2CCOCC2)c([N+](=O)[O-])c1)c1ccc(N2CC3(CCN(C4CCCCc5ccccc54)C3)C2)cc1Oc1cnc2[nH]ccc2c1 (centres unmarked) [Compound 98, 2-((1H-pyrrolo[2,3-b]pyridin-5-yl)oxy)-N-((3-nitro-4-(((tetrahydro-2H-pyran-4-yl)methyl)amino)phenyl)sulfonyl)-4-(6-(6,7,8,9-tetrahydro-5H-benzo[7]annulen-5-yl)-2,6-diazaspiro[3.4]octan-2-yl)benzamide] | 500 to 5000 |
| < 20 | O=C(NS(=O)(=O)c1ccc(NCC2CC3(CCC(O)CC3)C2)c([N+](=O)[O-])c1)c1ccc(N2CCN([C@@H]3CCCCc4c(Cl)cccc43)CC2)cc1Oc1cnc2[nH]ccc2c1 (stereo partly drawn) [Compound 134, (R)-2-((1H-pyrrolo[2,3-b]pyridin-5-yl)oxy)-4-(4-(1-chloro-6,7,8,9-tetrahydro-5H-benzo[7]annulen-5-yl)piperazin-1-yl)-N-((4-(((7-hydroxyspiro[3.5]nonan-2-yl)methyl)amino)-3-nitrophenyl)sulfonyl)benzamide] | < 50 |
| < 20 | O=C(NS(=O)(=O)c1ccc(NCC2CCOCC2)c([N+](=O)[O-])c1)c1ccc(N2CCN(C3CCCOc4ccccc43)CC2)cc1Oc1cnc2[nH]ccc2c1 (centres unmarked) [Compound 36, 2-((1H-pyrrolo[2,3-b]pyridin-5-yl)oxy)-N-((3-nitro-4-(((tetrahydro-2H-pyran-4-yl)methyl)amino)phenyl)sulfonyl)-4-(4-(2,3,4,5-tetrahydrobenzo[b]oxepin-5-yl)piperazin-1-yl)benzamide] | 50 to 500 |
